Columns and labels:
human IKKβ = target: T1, human IKKβ (Homo sapiens, UniProt O14920); test: Molecular assay IKKb: phosphorylation of IκBα substrate by IKKβ; assay type: biochemical
T1 construct: FLAG (N)
T1 sequence (O14920 1-756): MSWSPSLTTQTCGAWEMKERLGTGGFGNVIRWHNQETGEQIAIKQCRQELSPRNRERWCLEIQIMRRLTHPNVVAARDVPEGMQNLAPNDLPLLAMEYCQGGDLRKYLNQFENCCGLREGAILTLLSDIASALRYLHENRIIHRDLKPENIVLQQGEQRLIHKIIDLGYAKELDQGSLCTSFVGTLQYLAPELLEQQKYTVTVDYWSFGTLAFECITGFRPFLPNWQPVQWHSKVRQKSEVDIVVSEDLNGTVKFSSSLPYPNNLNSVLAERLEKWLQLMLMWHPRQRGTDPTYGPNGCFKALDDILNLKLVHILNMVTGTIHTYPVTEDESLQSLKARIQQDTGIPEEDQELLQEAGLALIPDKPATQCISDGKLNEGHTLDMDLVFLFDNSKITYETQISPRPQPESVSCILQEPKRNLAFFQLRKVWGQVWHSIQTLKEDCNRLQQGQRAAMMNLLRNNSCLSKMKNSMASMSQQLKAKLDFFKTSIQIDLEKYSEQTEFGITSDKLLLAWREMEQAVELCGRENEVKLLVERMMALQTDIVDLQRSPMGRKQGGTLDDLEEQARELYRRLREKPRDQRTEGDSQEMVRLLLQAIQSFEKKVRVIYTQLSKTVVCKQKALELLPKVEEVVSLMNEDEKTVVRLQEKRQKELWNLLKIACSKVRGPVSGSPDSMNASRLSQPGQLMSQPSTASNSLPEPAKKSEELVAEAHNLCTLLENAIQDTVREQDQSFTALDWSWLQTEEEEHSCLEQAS
Description: The inhibition of IKKα and IKKβ by the compounds of the present invention can be determined with the following assay that measures the phosphorylation of the IκBα substrate by the respective kinases. The enzymes used in the assay were N-terminally flag-tagged versions of the human IKKβ or IKKα and the substrate was a GST fusion protein with IκBα (amino acids 1-54).
The reaction mixtures (60 μl) contained 20 mM HEPES pH 7.5, 10 mM MgCl2, 2 mM MnCl2, 100 mM NaCl, 100 μM Na3VO4, 20 mM β-glycerophosphate, 1 mM DTT, 2% DMSO, 250 nM ATP, 0.4 nM [^33P]ATP (specific activity, 3000 Ci/mmol), IκBα substrate, IKK enzyme and test compound. The reaction mixtures contained either 3.6 μg/ml IKKα and 245 μg/ml IκBα or 0.9 μg/ml IKKβ and 53 μg/ml IκBα.
Reactions were initiated by adding a solution of IκBα substrate and ATP to polypropylene plates containing IKK enzyme that was pre-incubated for 5 minutes with test compound. Then the reaction mixtures were incubated for 1 hour at 25° C., placed on ice and quenched by the addition of 150 μl 10% trichloroacetic acid and 5% disodium pyrophosphate. After mixing, the entire contents of the quenched reaction mixtures were transferred to a pre-wetted Packard UniFilter filtration plate, aspirated and washed 6 times with 250 μl of ddH2O using the Packard Filtermate Harvester. Filtration plates were then air dried, supplemented with 40 μl of Microscint 20 scintillation fluid and the ^33P-labeled reaction products were quantified using the Packard TopCount scintillation counter.
Compounds were tested in three-fold serial dilutions and inhibitor concentrations to achieve 50% inhibition of enzyme activity (i.e., IC50) were derived from dose-response curves using SAS software (SAS Institute, Cary N.C.). A non-linear regression analysis based on the Hill equation was applied to the percent inhibition versus concentration data. In all cases, compound concentrations were verified by HPLC.

[1] = tested on: ICAM-1 Expression on HeLa Cells; test: Cell assay HeLa: ELISA of TNFα-stimulated ICAM-1 expression on HeLa cells; assay type: cell-based; conditions: for IC50: Homo sapiens, HeLa cells, TNFα stimulation, ICAM-1 expression; for cellular potency relative to the —CF3 group of compound 101: comparison in words, Table II
Description: HeLa cells are seeded on 96 well tissue culture treated plates (Costar) in complete medium comprised of 10% decomplemented fetal bovine serum in RPMI1640 with gentamycin and L-glutamine and grown overnight to confluence. The following day, the media is changed and the wells are treated with test compounds. 10 mM DMSO stock solutions of compounds are serially diluted with 0.1% DMSO (final concentration)-screening media to 5 final concentrations (starting at 10 μM). Compounds are pre-incubated with cells for 30 min followed by stimulation with TNFα (R&D Systems) for 5-6 hr. The adherent cells are then assayed for expression of intercellular adhesion molecule-1 (ICAM-1). Monolayers are washed three times with D-PBS (Gibco) and fixed for 10 min at room temperature with 1% paraformaldehyde (Polysciences, Inc) diluted in D-PBS. After washing to remove fixative, the monolayers are blocked with 2% BSA-D-PBS overnight at 4° C. 100 μL of anti-ICAM-1 mAB RR1-HRP (diluted 1:5000 in 2% BSA-DPBS; Zymed custom conjugate of BIPI mAB) is added for 1 hr at 37° C. Wells are washed three times with D-PBS. 100 μL of ABTS substrate diluted in substrate buffer (Zymed) is added to each well. Optical absorbance is measured at 405 nm in a Thermomax microplate reader ([…]). Data is plotted as percent of control and IC50s are determined using xlfit 4 model # 201.

[2] = Rat oral exposure (plasma exposure upon oral administration); assay type: in vivo; conditions: for concentration at 2 h / concentration at 6 h / concentration at 10 h: plasma, rat, oral, 10 mg/kg; for concentration at 2 h: read-out: Rat oral exposure (μM) @ 10 mg/kg dose 2h; for concentration at 6 h: read-out: Rat oral exposure (μM) @ 10 mg/kg dose 6h; for concentration at 10 h: read-out: Rat oral exposure (μM) @ 10 mg/kg dose 10h
[3] = tested on: established type II collagen arthritis in rats; test: Rat CIA model (7 day rat established type II collagen arthritis); assay type: in vivo
Source text: Effects of Compounds in 7 Day Rat Established Type II Collagen Arthritis
Purpose: To determine the dose responsive efficacy of compounds administered by oral gavage dosing bid in inhibiting the inflammation, cartilage destruction and bone resorption of established type II collagen arthritis in rats. The terminal pharmacokinetic component is included.
Animals: 36 (Order 42) Female Lewis rats (Harlan, 1173000), weighing 125-150 g on arrival. Extras are used because animals with arthritis are selected and there is not 100% incidence of disease in this model in the short time frame for enrollment (inject 42 with collagen to get […] solid responders on days 10, 11 for 4 groups of 8. Four rats are used to serve as normal controls.
Materials: Agents or drugs in vehicle (Cremaphor), Type II collagen, Freund's incomplete adjuvant.
General Study Design: Animals (8/group for arthritis, 4/group for normal control), housed 4/cage, are acclimated for 4-8 days.
Acclimated animals are anesthetized with Isoflurane and given collagen injections (day 0). […]
Statistical analysis of body/paw weights and paw AUC and histopathology parameters are evaluated using a one-way analysis of variance (ANOVA). […]
Percent inhibition of paw weight and AUC is calculated using the following formula: % Inhibition=A−B/A×100 A=Mean Disease Control−Mean Normal B=Mean Treated−Mean Normal

IC50 (human IKKβ) | IC50 [1] | concentration at 2 h [2] | concentration at 6 h [2] | concentration at 10 h [2] | SMILES | cellular potency relative to the —CF3 group of compound 101 [1] | level of sustained plasma exposure upon oral administration to rat, versus Compound 100 ([2]; comparison in words, Table II) | oral activity in a rat model of collagen induced arthritis ([3]; comparison in words, Table III) | Inhibition of paw weight increase ([3]; rat CIA, oral, 10 mg/kg BID)
78 nM | 720 nM | 0.21 µM | 0.12 µM | 0.08 µM | CCCc1cc(N2CCC(S(C)(=O)=O)CC2)nc2sc(C(N)=O)c(N)c12 [Compound 100, reference compound] | improved cellular potency | – | – | –
120 nM | 3200 nM | – | – | – | CS(=O)(=O)C1CCN(c2cc(C(F)(F)F)c3c(N)c(C(N)=O)sc3n2)CC1 [Compound 101] | – | – | – | –
26 nM | 700 nM | 1.59 µM | 0.78 µM | 0.65 µM | CCC(F)(F)c1cc(N2CCC(S(C)(=O)=O)CC2)nc2sc(C(N)=O)c(N)c12 [Compound 115, 3-Amino-4-(1,1-difluoro-propyl)-6-(4-methanesulfonyl-piperidin-1-yl)-thieno[2,3-b]pyridine-2-carboxylic acid amide] | improved cellular potency | improved level of sustained plasma exposure | superior oral activity | 44%
